Assay results as given in article PMC4058377 (Neurochemistry international, 2014).

What was measured:
X7C DAT [1] = molecular target: T1, X7C DAT (Homo sapiens, UniProt Q01959, C135A/C306A/C319M/C342M/C581L/C90A)
T1 sequence (Q01959 23-620 C90A/C135A/C306A/C319M/C342M/C581L): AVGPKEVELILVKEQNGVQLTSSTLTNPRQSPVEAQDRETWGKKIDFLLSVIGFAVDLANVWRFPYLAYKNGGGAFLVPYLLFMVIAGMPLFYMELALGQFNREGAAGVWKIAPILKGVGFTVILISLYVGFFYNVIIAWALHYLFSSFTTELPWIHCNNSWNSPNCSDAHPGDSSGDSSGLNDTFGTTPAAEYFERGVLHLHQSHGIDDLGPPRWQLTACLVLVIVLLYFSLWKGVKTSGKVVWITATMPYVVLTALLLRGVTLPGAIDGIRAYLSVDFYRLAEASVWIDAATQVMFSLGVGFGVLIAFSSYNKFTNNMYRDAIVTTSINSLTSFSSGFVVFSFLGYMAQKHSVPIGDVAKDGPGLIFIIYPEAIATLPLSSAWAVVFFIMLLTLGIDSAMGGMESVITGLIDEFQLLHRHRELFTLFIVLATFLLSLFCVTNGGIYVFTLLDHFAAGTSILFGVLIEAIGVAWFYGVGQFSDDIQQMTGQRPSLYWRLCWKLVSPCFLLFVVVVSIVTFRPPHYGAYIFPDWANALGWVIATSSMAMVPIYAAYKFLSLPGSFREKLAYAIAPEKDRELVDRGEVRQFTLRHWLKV

X7C DAT [2] = molecular target: T1, X7C DAT; test: [3H]MFZ 2-12 binding, membranes
[3] = molecular target: T2, all the remaining mutants as well as the background construct X7C (Homo sapiens, UniProt Q01959, C135A/C306A/C319M/C342M/C581L/C90A); test: Effect of Zn2+ on [3H]tyramine uptake; type: cell-based; conditions: 10 μM Zn^2+, 15 min prior to and during uptake
T2 sequence (Q01959 23-620 C90A/C135A/C306A/C319M/C342M/C581L): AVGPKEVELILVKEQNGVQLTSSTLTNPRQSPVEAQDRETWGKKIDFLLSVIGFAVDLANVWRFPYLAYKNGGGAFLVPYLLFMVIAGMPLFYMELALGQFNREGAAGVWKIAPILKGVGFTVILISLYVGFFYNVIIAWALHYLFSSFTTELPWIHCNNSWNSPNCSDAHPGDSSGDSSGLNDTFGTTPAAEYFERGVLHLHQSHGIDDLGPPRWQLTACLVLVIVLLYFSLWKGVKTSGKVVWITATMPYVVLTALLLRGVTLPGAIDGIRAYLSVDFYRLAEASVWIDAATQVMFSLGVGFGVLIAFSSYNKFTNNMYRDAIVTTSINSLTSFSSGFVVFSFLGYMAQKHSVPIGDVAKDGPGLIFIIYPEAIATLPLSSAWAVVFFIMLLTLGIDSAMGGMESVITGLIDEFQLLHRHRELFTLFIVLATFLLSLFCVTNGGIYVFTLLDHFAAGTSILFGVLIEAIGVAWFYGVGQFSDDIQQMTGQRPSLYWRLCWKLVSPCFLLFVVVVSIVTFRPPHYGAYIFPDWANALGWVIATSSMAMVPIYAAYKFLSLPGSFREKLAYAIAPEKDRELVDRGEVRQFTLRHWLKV

DAT Tyr335 to alanine = conditions: ref Loland et al., 2002; cited from earlier work
WT DAT = conditions: ref Loland et al., 1999, Norregaard et al., 1998; cited from earlier work
[4] = substrate: NCCc1ccc(O)cc1; test: cells, lysate or membranes; conditions: other: X7C; pH 7.4; 37.0 °C

Question: For NCCc1ccc(O)cc1 [tyramine], which “Vmax for tyramine uptake” value (X7C DAT [1]) is on record?
Answer: 29 ±8

Question: For COC(=O)[C@H]1[C@@H](c2ccc(Cl)c(Cl)c2)C[C@@H]2CC[C@H]1N2C [MFZ 2-12], which “MFZ 2-12 Bmax ± SEM” value (X7C DAT [2]) is on record?
Answer: 5 ± 2 pmol/mg

Question: What about the Kd (X7C DAT [2]; read-out: MFZ 2-12 KD ± SEM) of the same molecule?
Answer: 2.2 ± 0.5 nM

Question: What does the source list for [Cl-].[Cl-].[Zn+2] [Zn^2+, ZnCl2]?
Answer: effect of Zn^2+ on tyramine uptake [3]: inhibited uptake; effect of Zn^2+ on low uptake capacity (DAT Tyr335 to alanine): substantially restored; effect of Zn^2+ on dopamine uptake (WT DAT): inhibits

B1: X7C DAT (Homo sapiens; C135A/C306A/C319M/C342M/C581L/C90A) (protein)
chain: AVGPKEVELILVKEQNGVQLTSSTLTNPRQSPVEAQDRETWGKKIDFLLSVIGFAVDLANVWRFPYLAYKNGGGAFLVPYLLFMVIAGMPLFYMELALGQFNREGAAGVWKIAPILKGVGFTVILISLYVGFFYNVIIAWALHYLFSSFTTELPWIHCNNSWNSPNCSDAHPGDSSGDSSGLNDTFGTTPAAEYFERGVLHLHQSHGIDDLGPPRWQLTACLVLVIVLLYFSLWKGVKTSGKVVWITATMPYVVLTALLLRGVTLPGAIDGIRAYLSVDFYRLAEASVWIDAATQVMFSLGVGFGVLIAFSSYNKFTNNMYRDAIVTTSINSLTSFSSGFVVFSFLGYMAQKHSVPIGDVAKDGPGLIFIIYPEAIATLPLSSAWAVVFFIMLLTLGIDSAMGGMESVITGLIDEFQLLHRHRELFTLFIVLATFLLSLFCVTNGGIYVFTLLDHFAAGTSILFGVLIEAIGVAWFYGVGQFSDDIQQMTGQRPSLYWRLCWKLVSPCFLLFVVVVSIVTFRPPHYGAYIFPDWANALGWVIATSSMAMVPIYAAYKFLSLPGSFREKLAYAIAPEKDRELVDRGEVRQFTLRHWLKV
Question: For B1, which Km [4] is on record?
Answer: 2.6 µM
